Assay results published in ChEMBL document CHEMBL3751764, “Synthesis and in vitro antiproliferative activity of novel pyrazolo[3,4-d]pyrimidine derivatives” (Medchemcomm, 2015).
Active and inactive are the calls of the source. No cut-off for these calls is given here.

Legend:
[1] = Cytotoxicity against human SF295 cells after 72 hrs by SRB assay; type: functional; details: SF-295, 72 h
[2] = tested on: M14; test: Cytotoxicity against human M14 cells after 72 hrs by SRB assay; type: functional; details: M14, 72 h
[3] = Cytotoxicity against human Caki1 cells after 72 hrs by SRB assay; type: functional; details: CAKI-1, 72 h
[4] = Cytotoxicity against human SF268 cells after 72 hrs by SRB assay; type: functional; details: SF-268, 72 h
[5] = tested on: A498; test: Cytotoxicity against human A498 cells after 72 hrs by SRB assay; type: functional; details: A498, 72 h
[6] = tested on: KM12; test: Cytotoxicity against human KM12 cells after 72 hrs by SRB assay; type: functional; details: KM12, 72 h
[7] = tested on: A549; test: Upregulation of p27kip1 expression in human A549 cells by Western blotting analysis; type: functional
[8] = Cytotoxicity against human PC3 cells after 72 hrs by SRB assay; type: functional; details: PC-3, 72 h
[9] = tested on: CCRF-CEM; test: Cytotoxicity against human CCRF-CEM cells after 72 hrs by SRB assay; type: functional
[10] = Cytotoxicity against human SNB75 cells after 72 hrs by SRB assay; type: functional; details: SNB-75, 72 h
[11] = tested on: SN12C; test: Cytotoxicity against human SN12C cells after 72 hrs by SRB assay; type: functional
[12] = Cytotoxicity against human BT549 cells after 72 hrs by SRB assay; type: functional; details: BT-549, 72 h
[13] = tested on: NCI-H322M; test: Cytotoxicity against human NCI-H322M cells after 72 hrs by SRB assay; type: functional
[14] = Cytotoxicity against human NCI-ADR-RES cells after 72 hrs by SRB assay; type: functional
[15] = tested on: NCI-H23; test: Cytotoxicity against human NCI-H23 cells after 72 hrs by SRB assay; type: functional; details: NCI-H23, 72 h
[16] = Cytotoxicity against human Hs 578T cells after 72 hrs by SRB assay; type: functional
[17] = tested on: SK-MEL-5; test: Cytotoxicity against human SK-MEL-5 cells after 72 hrs by SRB assay; type: functional; details: SK-MEL-5, 72 h
[18] = tested on: NCI-H226; test: Cytotoxicity against human NCI-H226 cells after 72 hrs by SRB assay; type: functional; details: NCI-H226, 72 h
[19] = Cytotoxicity against human SNB19 cells after 72 hrs by SRB assay; type: functional; details: SNB-19, 72 h
[20] = tested on: 786-0; test: Cytotoxicity against human 786-0 cells after 72 hrs by SRB assay; type: functional; details: 786-0, 72 h
[21] = tested on: T47D; test: Cytotoxicity against human T47D cells after 72 hrs by SRB assay; type: functional
[22] = Cytotoxicity against human IGROV1 cells after 72 hrs by SRB assay; type: functional; details: IGROV-1, 72 h
[23] = Cytotoxicity against human LOXIMVI cells after 72 hrs by SRB assay; type: functional; details: LOX IMVI
[24] = Cytotoxicity against human UACC62 cells after 72 hrs by SRB assay; type: functional; details: UACC-62, 72 h
[25] = tested on: SK-MEL-28; test: Cytotoxicity against human SK-MEL-28 cells after 72 hrs by SRB assay; type: functional; details: SK-MEL-28, 72 h
[26] = Cytotoxicity against human HCT15 cells after 72 hrs by SRB assay; type: functional; details: HCT-15, 72 h
[27] = tested on: NCI-H460; test: Cytotoxicity against human NCI-H460 cells after 72 hrs by SRB assay; type: functional; details: NCI-H460, 72 h
[28] = Cytotoxicity against human HCC2998 cells after 72 hrs by SRB assay; type: functional; details: HCC 2998, 72 h
[29] = Cytotoxicity against human HOP92 cells after 72 hrs by SRB assay; type: functional; details: HOP-92, 72 h
[30] = Cytotoxicity against human OVCAR8 cells after 72 hrs by SRB assay; type: functional; details: OVCAR-8, 72 h
[31] = Cytotoxicity against human TK10 cells after 72 hrs by SRB assay; type: functional; details: TK-10, 72 h
[32] = tested on: A549; test: Cytotoxicity against human A549 cells after 72 hrs by SRB assay; type: functional, cell-based; details: A549, 72 h
[33] = tested on: Malme-3M; test: Cytotoxicity against human MALME-3M cells after 72 hrs by SRB assay; type: functional
[34] = tested on: NCI-H522; test: Cytotoxicity against human NCI-H522 cells after 72 hrs by SRB assay; type: functional; details: NCI-H522, 72 h
[35] = target: Platelet-derived growth factor receptor (Homo sapiens) (UniProt P09619+P16234); test: Inhibition of PDGFR (unknown origin) at 10 uM after 20 to 40 mins by liquid scintillation counting analysis in presence of […]; type: protein-complex assay
[36] = read-out: LC50 (the source's name)

## O=C(NC1CCCCC1)c1ccc(Nc2ncnc3c2cnn3-c2ccccc2)cc1
[1]
  GI50: 2.98 µM
  TGI: 13.3 µM
[1]; [36]
  CC50: 43.1 µM
[2]
  GI50: 18.3 µM
  TGI: > 100 µM
[2]; [36]
  CC50: > 100 µM
[3]
  GI50: 14 µM
  TGI: > 100 µM
[3]; [36]
  CC50: > 100 µM
[4]
  GI50: 5.85 µM
  TGI: > 100 µM
[4]; [36]
  CC50: > 100 µM
[5]
  GI50: 3.83 µM
  TGI: 39.4 µM
[5]; [36]
  CC50: > 100 µM
[6]
  GI50: 57.8 µM
  TGI: > 100 µM
[6]; [36]
  CC50: > 100 µM
[7]
  fold change (FC): 3
[8]
  GI50: 11.8 µM
  TGI: 44.8 µM
[8]; [36]
  CC50: > 100 µM
[9]
  GI50: > 100 µM
  TGI: > 100 µM
[9]; [36]
  CC50: > 100 µM
[10]
  GI50: 1.71 µM
  TGI: 5.4 µM
[10]; [36]
  CC50: 35.9 µM
[11]
  GI50: 8.26 µM
  TGI: > 100 µM
[11]; [36]
  CC50: > 100 µM
[12]
  GI50: 5.69 µM
  TGI: 26.4 µM
[12]; [36]
  CC50: 91.9 µM
[13]
  GI50: 15.8 µM
  TGI: > 100 µM
[13]; [36]
  CC50: > 100 µM
[14]
  GI50: 7.06 µM
  TGI: > 100 µM
[14]; [36]
  CC50: > 100 µM
[15]
  GI50: 10.9 µM
  TGI: 89.9 µM
[15]; [36]
  CC50: > 100 µM
[16]
  GI50: 3.37 µM
  TGI: 34.2 µM
[16]; [36]
  CC50: > 100 µM
[17]
  GI50: 21.7 µM
  TGI: > 100 µM
[17]; [36]
  CC50: > 100 µM
[18]
  GI50: 3.35 µM
  TGI: 21.5 µM
[18]; [36]
  CC50: > 100 µM
[19]
  GI50: 3.82 µM
  TGI: 18.9 µM
[19]; [36]
  CC50: > 100 µM
[20]
  GI50: 3.47 µM
  TGI: 18.3 µM
[20]; [36]
  CC50: 65.5 µM
[21]
  GI50: 20.2 µM
  TGI: > 100 µM
[21]; [36]
  CC50: > 100 µM
[22]
  GI50: 14.4 µM
  TGI: 65.9 µM
[22]; [36]
  CC50: > 100 µM
[23]
  GI50: 4.49 µM
  TGI: 22.3 µM
[23]; [36]
  CC50: > 100 µM
[24]
  GI50: 17.4 µM
  TGI: > 100 µM
[24]; [36]
  CC50: > 100 µM
[25]
  GI50: 3.79 µM
  TGI: > 100 µM
[25]; [36]
  CC50: > 100 µM
[26]
  GI50: 99.3 µM
  TGI: > 100 µM
[26]; [36]
  CC50: > 100 µM
[27]
  GI50: 7.09 µM
  TGI: > 100 µM
[27]; [36]
  CC50: > 100 µM
[28]
  GI50: > 100 µM
  TGI: > 100 µM
[28]; [36]
  CC50: > 100 µM
[29]
  GI50: 2.53 µM
  TGI: 8.29 µM
[29]; [36]
  CC50: 86.6 µM
[30]
  GI50: 3.87 µM
  TGI: 19.3 µM
[30]; [36]
  CC50: > 100 µM
[31]
  GI50: 16.5 µM
  TGI: 49.5 µM
[31]; [36]
  CC50: > 100 µM
[32]
  GI50: 4.38 µM
  IC50: 66.6 µM
  LC50: > 100 µM
  TGI: 51.3 µM
[33]
  GI50: 1.97 µM
  TGI: 4.94 µM
[33]; [36]
  CC50: 21 µM
[34]
  GI50: 6.4 µM
  TGI: > 100 µM
[34]; [36]
  CC50: > 100 µM

## O=c1sc2cc(Nc3ncnc4c3cnn4-c3ccccc3)ccc2n1Cc1ccc(Cl)cc1
[35]
  inhibition: inactive
